US20080241279A1, “Materials and methods of using calcium for reduction of inflammation” (General Mills, Inc., priority 2004, published 2008)

Conditions: about 1200 mg/day calcium, about −500 kcal diet, about 12 weeks; control group about 20%
Description: For example, about eighty (80) obese, but otherwise healthy, men and women (average baseline BMI about 34 kg/m2) with an average CRP of about 6.0 mg/L at baseline could be randomized to about 2 groups for about a 12 week intervention. Both groups would consume reduced calorie diets (about −500 kcal) to promote weight loss, with the calcium intake in “the control group” adjusted to about 500 mg/day and in “the intervention group” adjusted to about 1200 mg/day using a calcium source. […] DEXA and hs-CRP measurement can be performed at baseline and about 12 weeks.

## O=C([O-])[O-].[Ca+2] [calcium carbonate]
  fat loss from trunkal region: about 50%
